# What was measured:
# [1] = Oil Stability Index (OSI) in fish oil, Example 13; details: for antioxidant activity (OSI) in fish oil compared with MNT: Example 13, 0.5 and 2 mg/g; for OSI: Table 28, FG30TG fish oil, 80° C.; for Protection Factor (%): Table 34, fish oil (80° C.)
# Procedure: The compounds of formulae (3) and (7) were used in both fish and algal oils to see their antioxidant effect in these oils. Antioxidant effect was determined using mainly the Oil Stability Index (OSI). Two concentration levels were used: 0.5 mg/g (low level) and 2 mg/g (high level), respectively, have been added to 5 g of oil and used in the Oxidative Stability Instrument operated at 80° C. with the continuous air flow rate at ˜40 psi. All samples were run in duplicate. The Protection Factors (PF) for each compound, as percentage, in oil were calculated as, [formula]
# [2] = Oxipres antioxidant efficacy value (EV) in poultry meal; details: Oxipres 70° C., 5 bar O2, equimolar to BHT; EV relative to BHT (EV=1)
# Procedure: (§1) Oxidative stability was assessed using an Oxipres (Mikrolab Aarhus A/S, Hojbjerg, Denmark). The ML OXIPRES® is designed to monitor the oxidation of heterogeneous products. Consumption of oxygen results in a pressure drop which is measured by means of pressure transducers. The samples are heated to accelerate the process and shorten the analysis time (Mikrolab Aarhus 2012).
# (§2) Sample weights were 50 g. They were loaded into the Oxipres vessels and placed inside the stainless-steel pressure vessel and sealed. The pressure vessels were purged with pure oxygen and filled to an initial oxygen pressure of 5 bar and maintained at 70° C. during measurement (D. Ying, L. Edin, L. Cheng, L. Sanguansri, M. A. Augustin, LWT—Food Science and Technology 2015, 62, 1105-1111: “Enhanced oxidative stability of extruded product containing polyunsaturated oils.”).
# (§3) The oxygen pressure was recorded as function of time. After sample load and temperature rise the pressure in the device is increasing within 10 hours up to the starting pressure. Thereafter it is decreasing. Consequently, the starting pressure is considered as being the pressure after 10 hours. The analysis ends after 130 hours at 70° C. The oxygen consumption ‘O2’ of the tested sample is calculated as follows: […]
# (§4) A factor of protection called ‘EV’ (Efficacy Value) was developed to quantify with a relative number (relative to BHT) the antioxidant effect of the tested candidates. EV was calculated as follows:
# (§5) EV, being relative to BHT (3,5-di-tert-butyl-4-hydroxy-toluene) (EV=1), makes it possible to compare the antioxidant compounds in a defined feed application.
# (§6) Each of the compounds of formulae (1) to (6) were mixed into each matrix 1, 2 or 3 (pet food, poultry meal, fish meal) in an equimolar ratio compared to BHT. Batches of 200 g feed were produced in order to handle a minimum of 30 mg of antioxidant. First, a 1% pre-dilution of the antioxidant with the feed material was made. Then this pre-dilution was added to the final batch, mixed, sieved (1.25 mm sieve) and mixed using a turbula mixer. Thereafter 55 g of the final batch were packed into polyethylene bags, and stored at 4° C. until start of the Oxipres assay. Spare sample were stored at 4° C. Compound of formula (3) was measured in all three matrices. Compound of formula (1) was measured in matrix 1 and 2. Compound of formula (2) was measured in matrix 2. Compounds of formulae (4), (5) and (6) were measured in matrix 3. An efficacy value 0.7 has been considered as acceptable, an efficacy value ≥ the efficacy value of alpha-tocopherol as good, and an efficacy value ≥ the efficacy value of BHT as very good.
# [3] = Oxipres antioxidant efficacy value (EV) in fish meal; details: Oxipres 70° C., 5 bar O2, equimolar to BHT; EV relative to BHT (EV=1)
# Procedure: as §1, §2, §3, §4, §5, §6
# [4] = Oil Stability Index (OSI) in fish oil, Example 12; details: for OSI / Protection Factor (%): FG30TG fish oil
# Procedure: (§7) The compounds of formulae (4), (6), (8) and (9) were evaluated primarily for their oxidative stability by the Oil Stability Index (OSI) measurements. Two different levels of these antioxidants (0.5 and 2 mg/g) were used in 5 g of natural fish oil (Product code: FG30TG) and used in the Oxidative Stability Instrument at 80° C. with the air flow rate of 40 psi. The solubility of different amounts and types of antioxidants used in OSI was checked before and after the application.
# The compounds of formulae (6) and (9) (see Table 14 below), compound of formula (4) (see Table 15 below) and compound of formula (8) (see Table 16 below) were used at different times in the Oxidative Stability instruments under similar operational conditions used for fish oil evaluations. MNT and the oil without any antioxidants (“Blank”) were always used to compare. Also, the synergistic effect of only oil soluble compounds with ascorbyl palmitate was determined using the OSI values. The polymers generated at the end of the experiment were determined by LC (LC=liquid chromatography).
# The Protection Factors (PF) for each compound in oil were calculated in percentage as: […]
# [5] = Storage stability in fish oil (PV, p-AV), Example 13; details: storage at 25° C.
# Procedure: A storage stability study was performed to compare the variation of primary oxidation products, the hydroperoxides, generated during oxidation, measured in terms of peroxide value (PV) and the secondary oxidation products which were measured and determined as anisidine reactive substances or p-anisidine value (p-AV) of oil samples containing these compounds.
# The two different concentrations of compounds of formulae (3) and (7) were used for the storage stability study. Each compound and MNT were added, each individually, to 40 g of fish oil samples in 60 ml amber bottles at 0.5 mg/g and 2 mg/g levels, thoroughly mixed and stored at ambient temperature for 19 days. All sample bottles were stored open to air, away from light. […] Peroxide values (PV) and p-anisidine values (p-AV) were determined at different times for 19 days.
# [6] = Oil Stability Index (OSI) in crude algal oil, Example 13; details: for OSI: Table 33, crude algal oil (contained about 1.6 mg/g MNT prior to use), 80° C.; for Protection Factor (%): Table 35, crude algal oil (80° C.)
# Procedure: The compounds of formulae (3) and (7) were used in both fish and algal oils to see their antioxidant effect in these oils. Antioxidant effect was determined using mainly the Oil Stability Index (OSI).
# Two concentration levels were used: 0.5 mg/g (low level) and 2 mg/g (high level), respectively, have been added to 5 g of oil and used in the Oxidative Stability Instrument operated at 80° C. with the continuous air flow rate at ˜40 psi. All samples were run in duplicate. The Protection Factors (PF) for each compound, as percentage, in oil were calculated as,
# The Oil Stability Indices (OSI) of crude algal oil with levels of 0.5 mg/g and 2 mg/g of compounds of formulae (3) or (7) are shown in Table 33.
# [7] = Solubility in fish oil; type: physicochemical
# Procedure: as §7, with “application. […]” for “application.”
# [8] = Storage stability in fish oil (PV, p-AV, CD), Example 12; details: FG30TG, 2 mg/g
# Procedure: Tables 25, 26 and 27 show the PV (peroxide value), p-AV (p-anisidine value) and CD (Conjugated dienoic acid %) of the fish oil samples stabilized with compounds of formulae (6), (8) and (9), respectively.
# For the storage stability study oil soluble compounds were used in fish oil at 2 mg/g level only. […] There was no considerable variation in p-AV and CD (Tables 26-27) during the storage.
compound,measurement,setting,value
"6-Hydroxy-7-Methoxy-2,2-Dimethyl-Chroman-4-One [Compound of formula (10)]",antioxidant activity (OSI) in fish oil compared with MNT,[1],comparable antioxidant activity to MNT
"CC1CCc2cc(O)ccc2O1 (stereo not shown) [Compound of formula (2), 2-methyl-chroman-6-ol]",EV in poultry meal,[2],1.09
"COc1cc2c(cc1O)CCC(C)(C)O2 [Compound of formula (4), 7-Methoxy-2,2-Dimethyl-6-Chromanol]",EV in Fish meal,[3],1.05
same,OSI,"[4]; Table 15, 80° C., 0.5 mg/g",4.98 h
same,OSI,"[4]; Table 15, 80° C., 2 mg/g",5.95 h
same,Protection Factor (%),"[4]; Table 18, 0.5 mg/g",4.74%
same,Protection Factor (%),"[4]; Table 18, 2 mg/g",25.26%
same,antioxidant effect (OSI) in fish oil compared with MNT,"[4]; fish oil, Example 12, same level of MNT",lower OSI values than those of MNT
"Cc1c(C)c2c(c(C)c1O)CCC(C)(C)O2 [Compound of formula (5), 2,2,5,7,8-pentamethyl-chroman-6-ol]",EV in Fish meal,[3],1.08
"CC(C)CCCC1(C)CCc2cc(O)ccc2O1 (stereo not shown) [Compound of formula (7), 2-(4-methylpentyl)-2-methyl-chroman-6-ol]",OSI,[1]; 0.5 mg/g,6.15 h
same,OSI,[1]; 2 mg/g,7.23 h
same,Protection Factor (%),[1]; 0.5 mg/g,23%
same,Protection Factor (%),[1]; 2 mg/g,44.5%
same,antioxidant activity (OSI) in fish oil compared with MNT,[1],comparable in activity with MNT
same,"Peroxide values (PV, meq/kg)","[5]; 0.5 mg/g level, 1 day",1 meq/kg
same,p-Anisidine value (p-AV),"[5]; 0.5 mg/g level, 1 day",9.5
same,"Peroxide values (PV, meq/kg)","[5]; 0.5 mg/g level, 5 days",2 meq/kg
same,p-Anisidine value (p-AV),"[5]; 0.5 mg/g level, 5 days",9.8
same,"Peroxide values (PV, meq/kg)","[5]; 0.5 mg/g level, 8 days",6.4 meq/kg
same,p-Anisidine value (p-AV),"[5]; 0.5 mg/g level, 8 days",11.1
same,"Peroxide values (PV, meq/kg)","[5]; 0.5 mg/g level, 14 days",11.8 meq/kg
same,p-Anisidine value (p-AV),"[5]; 0.5 mg/g level, 14 days",12.4
same,"Peroxide values (PV, meq/kg)","[5]; 0.5 mg/g level, 19 days",19.5 meq/kg
same,p-Anisidine value (p-AV),"[5]; 0.5 mg/g level, 19 days",12.9
same,"Peroxide values (PV, meq/kg)","[5]; 0.5 mg/g level, Initial",1 meq/kg
same,p-Anisidine value (p-AV),"[5]; 0.5 mg/g level, Initial",9.4
same,"Peroxide values (PV, meq/kg)","[5]; 2 mg/g level, 1 day",1 meq/kg
same,p-Anisidine value (p-AV),"[5]; 2 mg/g level, 1 day",9.3
same,"Peroxide values (PV, meq/kg)","[5]; 2 mg/g level, 5 days",1.9 meq/kg
same,p-Anisidine value (p-AV),"[5]; 2 mg/g level, 5 days",9.3
same,"Peroxide values (PV, meq/kg)","[5]; 2 mg/g level, 8 days",8.2 meq/kg
same,p-Anisidine value (p-AV),"[5]; 2 mg/g level, 8 days",11.1
same,"Peroxide values (PV, meq/kg)","[5]; 2 mg/g level, 14 days",16.4 meq/kg
same,p-Anisidine value (p-AV),"[5]; 2 mg/g level, 14 days",11.9
same,"Peroxide values (PV, meq/kg)","[5]; 2 mg/g level, 19 days",27.3 meq/kg
same,p-Anisidine value (p-AV),"[5]; 2 mg/g level, 19 days",12.9
same,"Peroxide values (PV, meq/kg)","[5]; 2 mg/g level, Initial",1 meq/kg
same,p-Anisidine value (p-AV),"[5]; 2 mg/g level, Initial",9.4
same,OSI,[6]; 0.5 mg/g,16.38 h
same,OSI,[6]; 2 mg/g,18.53 h
same,Protection Factor (%),[6]; 0.5 mg/g,9.2%
same,Protection Factor (%),[6]; 2 mg/g,23.5%
same,Solubility in oil,"[7]; fish oil, 0.5 and 2 mg/g, mixed around 40° C. to dissolve completely",not readily soluble in oil
"CC(C)CCCC(C)CCCC1(C)CCc2cc(O)ccc2O1 (stereo not shown) [Compound of formula (8), 2-(4,8-dimethylnonyl)-2-methyl-chroman-6-ol]",CD (conjugated dienoic acid in %),[8]; 4 days,0.6%
same,PV (peroxide value),[8]; 4 days,1.6
same,p-AV (p-anisidine value),[8]; 4 days,10.3
same,CD (conjugated dienoic acid in %),[8]; 6 days,0.6%
same,PV (peroxide value),[8]; 6 days,1.8
same,p-AV (p-anisidine value),[8]; 6 days,9.8
same,CD (conjugated dienoic acid in %),[8]; 8 days,0.2%
same,PV (peroxide value),[8]; 8 days,3.1
same,p-AV (p-anisidine value),[8]; 8 days,10
same,CD (conjugated dienoic acid in %),[8]; 11 days,0.7%
same,PV (peroxide value),[8]; 11 days,3.7
same,p-AV (p-anisidine value),[8]; 11 days,10.4
same,CD (conjugated dienoic acid in %),[8]; 13 days,0.7%
same,PV (peroxide value),[8]; 13 days,8.7
same,p-AV (p-anisidine value),[8]; 13 days,10.6
same,CD (conjugated dienoic acid in %),[8]; 15 days,0.8%
same,PV (peroxide value),[8]; 17 days,11.5
same,p-AV (p-anisidine value),[8]; 17 days,11
same,CD (conjugated dienoic acid in %),[8]; Initial,0.7%
same,PV (peroxide value),[8]; Initial,0.9
same,p-AV (p-anisidine value),[8]; Initial,9.9
same,"Solubility in fish oil, 80° C.",[7]; 0.5 mg/g,soluble
same,"Solubility in fish oil, Room temp.",[7]; 0.5 mg/g,soluble
same,"Solubility in fish oil, 80° C.",[7]; 2.0 mg/g,soluble
same,"Solubility in fish oil, Room temp.",[7]; 2.0 mg/g,soluble
same,OSI,"[4]; Table 16, 80° C., 0.5 mg/g",5.48 h
same,OSI,"[4]; Table 16, 80° C., 2 mg/g",5.96 h
same,Protection Factor (%),"[4]; Table 19, 0.5 mg/g",15.42%
same,Protection Factor (%),"[4]; Table 19, 2 mg/g",25.89%
same,OSI,"[4]; Table 21, 2 mg/g + 0.5 mg/g of AP (ascorbyl palmitate)",7.03 h
same,OSI,"[4]; Table 21, 2 mg/g, without AP",6.58 h
same,Protection Factor (%),"[4]; Table 23, 2 mg/g + 0.5 mg/g of AP",130%
same,Protection Factor (%),"[4]; Table 23, 2 mg/g, without AP",145%

# Reference: US20210030022A1, “NOVEL USE OF SUBSTITUTED CHROMAN-6-OLS” (DSM IP ASSETS B.V., priority 2018, published 2021)
